Molecules are shown by their SMILES. Values after ≈ are worked out from the molar mass of the structure shown. Some results are limits rather than exact numbers.

The term IC50 denotes the point on the concentration scale where inhibition reaches its midpoint. For orientation: Ki means the dissociation constant of the complex between target and ligand, obtained from inhibition or displacement. Higher therefore signals weaker binding. A word on the solubility: it is how much of the substance goes into solution per volume. Usually inhibition stands for the drop in the measured response relative to a control, in per cent. Lower therefore signals a weak effect. In general, Kd refers to a measure of binding affinity in units of concentration. As a reminder, the pKb is the negative decadic logarithm of the Kb, by convention in mol/L.

Series [1] concerns the target T1, Orexin/Hypocretin receptor type 1 (Homo sapiens, UniProt O43613).
T1 sequence (O43613 whole entry): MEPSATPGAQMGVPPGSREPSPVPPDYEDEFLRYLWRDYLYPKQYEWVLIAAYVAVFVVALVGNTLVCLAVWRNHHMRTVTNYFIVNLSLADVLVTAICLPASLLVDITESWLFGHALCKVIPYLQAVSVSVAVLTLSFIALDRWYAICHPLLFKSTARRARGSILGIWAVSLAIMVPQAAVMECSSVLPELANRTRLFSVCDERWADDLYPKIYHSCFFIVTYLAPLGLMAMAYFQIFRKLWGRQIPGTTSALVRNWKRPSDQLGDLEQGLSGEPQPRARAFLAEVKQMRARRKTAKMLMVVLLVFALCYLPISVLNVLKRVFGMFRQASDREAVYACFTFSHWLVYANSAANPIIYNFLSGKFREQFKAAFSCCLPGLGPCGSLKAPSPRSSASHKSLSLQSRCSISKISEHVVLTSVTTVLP
The series is described as follows: Antagonist activity at OX1 receptor by FLIPR. It is filed as functional.

For series [2], the target named is T2, Orexin receptor type 2 (Homo sapiens, UniProt O43614).
T2 sequence (O43614 whole entry): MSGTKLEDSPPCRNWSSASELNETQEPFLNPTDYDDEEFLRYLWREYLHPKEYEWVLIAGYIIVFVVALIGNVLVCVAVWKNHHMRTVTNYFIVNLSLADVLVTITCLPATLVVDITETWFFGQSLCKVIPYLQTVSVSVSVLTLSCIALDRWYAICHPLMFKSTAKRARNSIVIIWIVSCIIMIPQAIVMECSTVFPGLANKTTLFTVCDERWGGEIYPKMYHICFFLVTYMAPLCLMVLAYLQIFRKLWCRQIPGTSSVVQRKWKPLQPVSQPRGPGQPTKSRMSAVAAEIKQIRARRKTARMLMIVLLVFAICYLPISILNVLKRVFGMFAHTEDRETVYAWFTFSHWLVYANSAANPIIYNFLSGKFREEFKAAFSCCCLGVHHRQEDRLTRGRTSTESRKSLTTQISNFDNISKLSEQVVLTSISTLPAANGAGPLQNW
The experiment in a line: Antagonist activity at OX2 receptor by FLIPR. The class given is functional.

Series [3] concerns the target T1, Orexin/Hypocretin receptor type 1. The experiment in a line: Binding affinity to OX1 receptor.
The target in series [4] is T2, Orexin receptor type 2. The series is described as follows: Binding affinity to OX2 receptor.
Series [5] is described as follows: Selectivity of Ki for OX1 receptor to Ki for OX2 receptor.
Series [6] in a line: Aqueous solubility at pH 7. The class given is physicochemical.
Series [7] has as its target Kappa-type opioid receptor (Homo sapiens) (UniProt P41145). The series is described as follows: Inhibition of kappa opioid receptor at 10 uM.
Series [8] addresses T3, Neuropeptide Y receptor type 1 (Homo sapiens) (UniProt P25929).
T3 sequence (whole entry): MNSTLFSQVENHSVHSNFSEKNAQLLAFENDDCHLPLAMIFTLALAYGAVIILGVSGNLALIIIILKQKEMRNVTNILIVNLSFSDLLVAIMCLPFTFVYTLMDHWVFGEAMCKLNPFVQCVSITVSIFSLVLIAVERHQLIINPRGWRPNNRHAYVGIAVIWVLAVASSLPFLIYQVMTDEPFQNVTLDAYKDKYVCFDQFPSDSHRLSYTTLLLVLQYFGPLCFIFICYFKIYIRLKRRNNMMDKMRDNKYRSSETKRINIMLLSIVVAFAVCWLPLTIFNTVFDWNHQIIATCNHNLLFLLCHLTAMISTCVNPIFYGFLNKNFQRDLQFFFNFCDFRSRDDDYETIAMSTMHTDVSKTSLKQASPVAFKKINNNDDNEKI
The series is described as follows: Inhibition of NPY1 receptor at 10 uM.

The target of series [9] is T4, Neuromedin-K receptor (Homo sapiens) (UniProt P29371).
T4 sequence (whole entry): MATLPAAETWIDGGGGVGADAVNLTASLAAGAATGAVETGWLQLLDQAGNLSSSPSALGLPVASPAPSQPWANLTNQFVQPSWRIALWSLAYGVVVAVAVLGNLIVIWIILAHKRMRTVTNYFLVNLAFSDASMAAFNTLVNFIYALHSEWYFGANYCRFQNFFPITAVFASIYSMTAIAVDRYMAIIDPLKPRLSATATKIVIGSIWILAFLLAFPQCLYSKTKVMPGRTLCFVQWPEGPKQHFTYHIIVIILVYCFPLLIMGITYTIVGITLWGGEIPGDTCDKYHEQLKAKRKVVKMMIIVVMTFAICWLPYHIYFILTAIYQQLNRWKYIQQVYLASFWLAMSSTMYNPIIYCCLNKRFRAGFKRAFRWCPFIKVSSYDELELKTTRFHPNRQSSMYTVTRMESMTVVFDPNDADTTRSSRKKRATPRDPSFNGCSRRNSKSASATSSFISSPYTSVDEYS
The series is described as follows: Inhibition of neurokinin-3 receptor at 10 uM.

The nature of series [10]: Selectivity for OX1 receptor over OX2 receptor.
Series [11] deals with T1, Orexin/Hypocretin receptor type 1. The series is described as follows: Antagonist activity at human OX1 receptor. It is filed as functional.
The target in series [12] is T2, Orexin receptor type 2. The series is described as follows: Antagonist activity at human OX2 receptor. The class given is functional.
Series [13] deals with T5, Orexin/Hypocretin receptor type 1 (Homo sapiens) (UniProt O43613).
T5 sequence (whole entry): T1 sequence (O43613 whole entry)
The series is described as follows: Antagonist activity at human OX1 receptor expressed in CHO cells assessed as inhibition of receptor-mediated calcium response by FLIPR. The class given is functional, cell-based.

The target of series [14] is T6, Orexin receptor type 2 (Homo sapiens) (UniProt O43614).
T6 sequence (whole entry): T2 sequence (O43614 whole entry)
The experiment in a line: Antagonist activity at human OX2 receptor expressed in CHO cells assessed as inhibition of receptor-mediated calcium response by FLIPR. The class given is functional, cell-based.

Series [15] in a line: Inhibition of galanin receptor at 10 uM.
The nature of series [16]: Inhibition of neuropeptide Y receptor at 10 uM.

Sequence of Kappa-type opioid receptor (Homo sapiens) (P41145 whole entry): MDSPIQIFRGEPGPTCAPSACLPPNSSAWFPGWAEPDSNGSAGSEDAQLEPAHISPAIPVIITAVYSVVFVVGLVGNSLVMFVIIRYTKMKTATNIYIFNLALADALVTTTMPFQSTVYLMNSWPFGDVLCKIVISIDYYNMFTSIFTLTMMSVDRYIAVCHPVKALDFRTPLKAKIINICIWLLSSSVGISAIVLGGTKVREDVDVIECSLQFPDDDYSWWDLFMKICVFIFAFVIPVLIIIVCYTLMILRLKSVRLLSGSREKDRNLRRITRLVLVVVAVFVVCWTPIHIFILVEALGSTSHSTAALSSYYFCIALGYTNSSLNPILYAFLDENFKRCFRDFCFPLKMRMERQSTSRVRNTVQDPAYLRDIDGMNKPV

For the compound `CCN(Cc1ccn(C)n1)C(=O)CN(c1cc(N(C)C)ccc1Cl)S(=O)(=O)c1ccc(OC)c(OC)c1`, the figures for the IC50 in series [1] and in [2] were 12 nM and 7 nM, respectively.

For `CCc1nc(OC)c2n1CCN([C@@H](C(=O)NC)c1ccccc1)[C@H]2CCc1ccc(C)c(F)c1`, the IC50 was determined as 49 nM in series [1] and 2 nM in series [2].

For `CC(C)c1ccccc1NC(=O)N[C@H]1COC(C)(C)O[C@H]1c1ccccc1`, the Ki in series [3] is 2510 nM; in [4], more than 10000 nM. Also, in [5], the Ratio is 4.

Regarding `COc1ccccc1NC(=O)N[C@H]1COC(C)(C)O[C@H]1c1ccccc1`, the Ki in [3] was 2510 nM; in series [4], more than 10000 nM. Besides, the Ratio in series [5] is 4.

For the compound `CC1(C)OC[C@H](NC(=O)Nc2ccccc2I)[C@H](c2ccccc2)O1`, the inhibitory constant (Ki) in [3] is 79.4 nM; in series [4] it was more than 5010 nM. For the same compound, the Ratio in series [5] stood at 70.

With `COc1cc2c(cc1OC)CN(C(=O)C(Cc1ccccc1)c1ccccc1)CC2` (racemic), the solubility in series [6] is 810 µg/mL (≈ 2020 µM).

With `CC1(C)OC[C@H](NC(=O)Nc2ccc(Br)cc2Br)[C@H](c2ccccc2)O1`, the affinity in [4] corresponds to a Ki of 3160 nM. The Ratio in series [5] was 600. Besides, the inhibition in series [7], in series [8] and in series [9] was less than 40% in each case.

On to `CC1(C)OC[C@H](NC(=O)Nc2ccccc2C(F)(F)F)[C@H](c2ccccc2)O1`, for which the inhibition constant Ki was 100 nM in series [3] and more than 10000 nM in series [4]. The Ratio in series [5] was found to be 100.

`Cc1cc(NC(=O)Nc2ccc(N(C)C)cc2)c2cc(F)cc(F)c2n1` gave an equilibrium dissociation constant (Kd) in series [3] of 26.9 nM. Also, the Ratio in series [10] is more than 50.

With `CCN(Cc1cc(C)n(C)n1)C(=O)CN(c1cc(N(C)C)ccc1Cl)S(=O)(=O)c1ccc(OC)c(OC)c1`, the results for the half-inhibitory concentration (IC50) in series [1] and in series [2] were 6 nM and 4 nM, respectively.

For `CNC1CCCC1CN[C@H](C(=O)N1CCc2cc(OC)c(OC)cc2C1)C(C)(C)C` (stereo partly drawn), the IC50 in series [11] is 3600 nM; in [12], 28 nM.

Take `CC1(C)OC[C@H](NC(=O)Nc2c(Cl)cccc2Cl)[C@H](c2ccccc2)O1`: the Ki was more than 5010 nM in series [3] and more than 10000 nM in [4]. Further, in series [5], the Ratio came out at 2.

Take `CCN(Cc1cccc(C)n1)C(=O)CN(c1cc(N(C)C)ccc1Cl)S(=O)(=O)c1ccc(OC)c(OC)c1`: the IC50 in series [1] worked out at 17 nM; in series [2], 5 nM.

For the compound `CC1(C)OC[C@H](NC(=O)Nc2ccccc2F)[C@H](c2ccccc2)O1`, the values for the Ki in [3] and in series [4] were 398 nM and more than 10000 nM, respectively. Moreover, the Ratio in series [5] was 20.

For the compound `COc1cc2c(cc1OC)CN(C(=O)C(Cc1ccccc1)C(=O)c1cc(Cl)cc(Cl)c1)CC2` (racemic), the figures for the half-maximal inhibitory concentration (IC50) in series [11] and in [12] were 5300 nM and 36 nM, respectively.

For `Cc1cc(Br)ccc1NC(=O)N[C@H]1COC(C)(C)O[C@H]1c1ccccc1`, the inhibition constant Ki in [3] is 39.8 nM; in [4] it was more than 10000 nM. The Ratio in [5] was determined as 200.

Consider `CC1(C)OC[C@H](NC(=O)Nc2ccc(Cl)cc2Cl)[C@H](c2ccccc2)O1`, for which the inhibition constant (Ki) is 20 nM in [3] and 2510 nM in series [4]. Also, the Ratio in [5] is 100.

As to `CCc1nc(OC)c2n1CCN([C@@H](C(=O)NC)c1ccccc1)[C@H]2CCc1ccc(C)c(C)c1`, the 50% inhibitory concentration (IC50) turned out to be 5 nM in series [1] and 4 nM in series [2].

On to `CN(C)c1ccc(NC(=O)Nc2ccnc3c(F)ccc(F)c23)cc1`, for which the equilibrium dissociation constant (Kd) in series [3] was 4.47 nM. Also, the Ratio in series [10] was more than 50.

Consider `CC1(C)OC[C@H](NC(=O)Nc2ccccc2Cl)[C@H](c2ccccc2)O1`, for which the Ki in series [3] was 79.4 nM; in [4] it was more than 10000 nM. Besides, the Ratio in series [5] is 100.

Consider `Cn1ccc2cc(NC(=O)Nc3ccnc4ccccc34)ccc21`, for which the pKb was found to be 7.5 in series [13] and 5.6 in series [14].

For the compound `COc1cc2c(cc1OC)CN(C(=O)[C@@H](NCc1ccncc1)C(C)(C)C)CC2`, the inhibition in series [15] and in series [16] was less than 30% throughout.

Consider `CC1(C)OC[C@H](NC(=O)Nc2ccc(Br)cc2Cl)[C@H](c2ccccc2)O1`, for which the figures for the Ki in [3] and in [4] were 6.31 nM and more than 5010 nM, respectively. Besides, in series [5], the Ratio was determined as 900.

With `CC1(C)OC[C@H](NC(=O)Nc2ccccc2)[C@H](c2ccccc2)O1`, the Ki is 501 nM in [3] and more than 10000 nM in [4]. For the same compound, the Ratio in series [5] came out at 20.

In series [3], `Cc1nc(C(=O)N2CCC[C@H]2Cc2nnc(-c3ccccc3)o2)c(-c2ccccc2F)s1` gave a Kd of 5.13 nM. Also, the Ratio in [10] was more than 100.

`CC1(C)OC[C@H](NC(=O)Nc2ccc(Br)cc2)[C@H](c2ccccc2)O1`: the Ki is 251 nM in series [3] and more than 10000 nM in series [4]. In series [5], the Ratio came to 40.

Turning to `Cc1cccc(-c2sc(CCCO)nc2C(=O)N2C[C@H]3C[C@H]3[C@H]2CNC(=O)c2c(C)nc3sccn23)c1`, the IC50 in [1] worked out at 19 nM; in series [2], 17 nM.

The record behind these values is ChEMBL document CHEMBL1140924, “Biomedical application of orexin/hypocretin receptor ligands in neuroscience” (J Med Chem, 2009).
